Laboratory results published in US20250305982A1, “DEVICE AND METHOD FOR THE DETECTION OF BIOMARKERS ASSOCIATED WITH NEURODEGENERATIVE DISEASES” (CONSEJO NACIONAL DE INVESTIGACIONES CIENTÍFICAS Y TÉCNICAS …, priority 2022, published 2025).

What was measured:
AS PFF = target: T1, AS PFF (Homo sapiens, UniProt P37840); assay: Comparative binding of immobilized doxycycline hyclate and Doxy-5 to AS aggregates; details: AS aggregates 20 ng/ml; polystyrene microplates; FIG. 8
T1 construct: made in house; host or cells: E. coli BL21
Protocol: The 96-well polystyrene plate was sensitized by incubation overnight a 4° C. and protected from light with 20 μg/mL of the compound of formula (II) in 20 mM sodium acetate pH 5 (50 μL/well). The plate was rinsed with PBST (PBS 10 mM pH 7.4+Tween-80 0.01%) and blocked with 150 μL/well of a 0.1% lysozyme solution in PBS 10 mM pH 7.4 during 1 h at 37° C. After rinsing, 50 μL of the samples with the analytes of interest prepared in 10 mM PBS pH 7.4 were added to each well, and the plate was incubated at 37° C. for 2 h. The plate is then rinsed again, and 50 μL of the anti-AS antibody diluted to 1 μg/ml in 10% bovine fetal serum (BFS in 10 mM PBS pH 7.4) were added to each well, after which the plate was incubated 1.5 h. The plate was rinsed once more and incubated at 37° C. during 1 h with 50 μL/well of the antibody conjugated with peroxidase diluted to 1 μg/ml in 10% bovine fetal serum. […] Immediately thereafter, the developed absorbance is measured with a TECAN Spark microplate reader.
Both doxycycline hyclate and Doxy-5 were immobilized on polystyrene microplates and contacted with AS aggregates (PPF) according to the protocol described in Example 4, using a concentration for the AS aggregates of 20 ng/ml. The binding of the AS aggregates to each molecule was determined as described in Example 4 as well.

amyloid aggregates = details: González-Lizárraga (2017), Medina (2021); cited from earlier work
AS fibers = target: T2, AS fibers (Homo sapiens, UniProt P37840); assay: Cyclic voltammetry with gold biosensors modified with Doxy-5; assay type: binding
T2 construct: made in house; host or cells: E. coli BL21
Protocol: A comparative study for different crosslinking agents for the immobilization of Doxy-5 on gold conductive surfaces was performed. 3-mercaptopropionic acid (MPA), which is able to form self-assembled monolayers (SAM) on the substrate thus facilitating its functionalization, was used. Gold was chosen because it is inert for the molecule of interest. Additionally, the use of other agents such as 1-ethyl-3-(3-dimethylaminopropyl) carbodiimide hydrochloride (EDC) and N-hydroxysuccinimide (NHS), either for generating or activating present moieties, is necessary for the formation of covalent bonds with Doxy-5. Concentrations and incubation times were optimized in each modification stage of the gold surface.
Cyclic voltammetry (CV) measurements were first carried out to characterize each of the immobilization stages on a gold substrate. Said measurements were carried out in a cell with tripolar configuration using a platinum electrode as counter electrode, a silver/silver chloride reference electrode, and the modified gold electrodes as working electrodes. The electrolyte [Fe(CN)6]K4, containing the Fe^3+/Fe^2+ redox pair, was used in every characterization assay. […] CV and EIS measurements were also performed in each immobilization stage using phosphate buffer (PBS) at pH 7.4 (FIG. 1). […]

fibrillar AS = target: T3, fibrillar AS (Homo sapiens, UniProt P37840); assay: Sandwich immunoassay, Doxy-5 adsorbed on polystyrene microplates; assay type: binding
T3 construct: made in house; host or cells: E. coli BL21
Protocol: The design is based on an immunoassay with a conventional sandwich system involving the capture of fibrillar species of AS by Doxy-5, followed by detection with two antibodies: an anti-human AS antibody, and an antibody conjugated to a peroxidase. Briefly, the compound of formula (II) is incubated in polystyrene microplates wherein it is adsorbed. After several rinses, to eliminate any non-adsorbed molecules, the system is incubated with a primary anti-human AS rabbit antibody. After rinsing, the system is then incubated with a secondary anti-rabbit antibody conjugated to peroxidase. The conjugated antibody reacts specifically with the primary antibodies which are bound to the immunocaptured AS. […] After incubating, a blue color develops, whose intensity depends on the concentration and the affinity of Doxy-5 to the AS species. The enzymatic reaction is stopped by the addition of sulfuric acid, which produces a color shift towards yellow which is spectrometrically quantifiable at 450 nm.
The 96-well polystyrene plate was sensitized by incubation overnight a 4° C. and protected from light with 20 μg/mL of the compound of formula (II) in 20 mM sodium acetate pH 5 (50 μL/well). The plate was rinsed with PBST (PBS 10 mM pH 7.4+Tween-80 0.01%) and blocked with 150 μL/well of a 0.1% lysozyme solution in PBS 10 mM pH 7.4 during 1 h at 37° C. After rinsing, 50 μL of the samples with the analytes of interest prepared in 10 mM PBS pH 7.4 were added to each well, and the plate was incubated at 37° C. for 2 h. […] Immediately thereafter, the developed absorbance is measured with a TECAN Spark microplate reader.
The focus of the immunoassay takes advantage of the generation of a colored compound by action of the peroxidase on the substrate (TMB), which is proportional to the concentration of the AS analytes captured by Doxy-5. The absorbance readings at 450 nm were acquired with a TECAN Spark microplate reader. […]

Tau aggregates (PFF) = assay: Immunoassay, Doxy-5 bound to BSA through glutaraldehyde on polystyrene microplate; assay type: binding; details: Taum 100 ng/ml, PFF 1/10000 dilution; Doxy-5 40 μg/ml; FIG. 6
Protocol: The sensitization of the wells was carried out as follows: first, the binding sites of the microplate were blocked with albumin. Afterwards, compound of formula (II) was covalently linked to albumin by using glutaraldehyde as the linker.
For this purpose, a 96-well polystyrene microplate was incubated with 150 μL/well of 1% bovine serum albumin (BSA) overnight at 4° C. in a humid chamber. Then, after three cycles of washing with PBST, 50 μL/well of glutaraldehyde at different concentrations (0.1%, 0.5% and 1%) were added to the wells and the plate was kept during specified times (either 10 minutes for every concentration, or 5 minutes for 0.5% and 1%) under a hood. Wells were then washed three times with PBS, and 50 μL/well of Doxy-5 (40 μg/ml) were added. The plate was then incubated at 37° C. for 30 minutes, protected from light. Afterwards, the wells were washed again with PBST, and 50 μL/well of 1M TRIS was added as a glutaraldehyde-inactivating agent. The microplate was then incubated at 37° C. for 30 minutes. […] To stop the reaction, 25 μL/well of 2N H2SO4 were added, and the microplate was immediately read on a microplate reader (Tecan Spark, Austria) at the wavelength of 450 nm.

## doxycycline hyclate [reference compound]
AS PFF
  signal for binding to AS PFF: positive signal

## Nc1c(/N=N/c2ccc(-c3ccc(/N=N/c4cc(S(=O)(=O)O)c5ccccc5c4N)cc3)cc2)cc(S(=O)(=O)O)c2ccccc12 [Congo red]
Amyloid aggregates
  binding to amyloid aggregates structures: strong and specific binding

## C[C@H]1c2ccc(N)c(O)c2C(=O)C2=C(O)[C@]3(O)C(=O)C(C(N)=O)=C(O)CC3[C@@H](O)C21 (stereo partly shown) [Doxy-5, 9-amino-4-dedimethylamino doxycycline]
AS PFF
  signal for binding to AS PFF: significantly higher
AS fibers; CV, -0.6 V to 0.6 V, 30 mV/seg, Doxy-5 on MPA-SAM gold electrode
  electrochemical response of the sensor in the presence of the AS fibers (oxidation peak of voltammogram): clear electrochemical response
AS fibers; monomer up to 100 ng/ml, response lower than fibers at 0.1 ng/mL
  interference of the AS monomer in CV response: non-existing interference of the monomer
Fibrillar AS; native AS as negative control
  cross-reaction with native (monomeric) AS: no cross-reaction
Fibrillar AS; wells sensitized with Doxy-5
  AS concentrations showing the best differential reactivity between aggregated and monomeric species: over 30 ng/mL
Fibrillar AS; wells sensitized with Doxy-5, absorbance 450 nm
  affinity towards fibrillar AS: nanomolar affinity
Tau aggregates (PFF)
  discrimination between Tau monomer (Taum) and pre-formed fibrils (PFF), signal at 450 nm: higher signal for PFF compared with Taum and PBS

## Cc1ccc2c(c1)sc(-c1ccc(N(C)C)cc1)[n+]2C.[Cl-] [Thioflavin T]
Amyloid aggregates
  binding to amyloid aggregates structures: strong and specific binding
